The values below come from patent US6534524B1, “Indazole compounds and pharmaceutical compositions for inhibiting protein kinases, and methods for their use” (Agouron Pharmaceuticals, Inc., priority 1999, dated 2003).

The first test relates to human umbilical vein endothelial cells (HUVEC). Description: HUVEC proliferation assay (VEGF-stimulated, MTT).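 On % inhibition of the proliferation of HUVEC: relative to VEGF-stimulated control minus starvation-medium baseline.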 Format: cell-based. The note with it: + albumin; read-out: HUVEC + albumin IC50.
Take “6-(3-Benzamidobenzoyl)-3-E-[N-(4H-1,2,4-triazol-4-yl)iminomethyl]-1H-indazole [Example 42(e)]”: the IC50 (in general, the concentration at which inhibition is half-maximal) was found to be 95 nM.

The same test, now with this note: Homo sapiens, HUVEC, + albumin; read-out: HUVEC + albumin IC50.
In the case of `NC(=O)c1ccccc1Sc1ccc2c(/C=C/c3ccccn3)n[nH]c2c1` [Example 35(d), 6-(2-Carbamoylphenylsulfanyl)-3-E-[2-(pyridin-2-yl)ethenyl]-1H-indazole], the IC50 was more than 100 nM. Regarding `CNCCNC(=O)c1ccccc1Sc1ccc2c(/C=C/c3ccccn3)n[nH]c2c1` [Example 35(gg), 6-[2-(2-(Methylamino)ethylcarbamoyl)phenylsulfanyl]-3-E-[2-(pyridin-2-yl)ethenyl]-1H-indazole], the IC50 is more than 100 nM. Same read-out and setting: then `O=C(N/N=C/c1ccccn1)c1ccccc1Sc1ccc2c(/C=C/c3ccccn3)n[nH]c2c1` [Example 36(b)], with more than 30 nM; and `O=C(N/N=C/C(F)(F)F)c1ccccc1Sc1ccc2c(/C=C/c3ccccn3)n[nH]c2c1` [Example 36(c)], with more than 30 nM. As for `CNC(=O)c1cccc(F)c1Sc1ccc2c(/C=C/c3ccccn3)n[nH]c2c1` [Example 37(d), 6-[6-Fluoro-2-(methylcarbamoyl)phenylsulfanyl]-3-E-[2-(pyridin-2-yl)ethenyl]-1H-indazole], the half-inhibitory concentration (IC50) was more than 100 nM. As to `CC(=O)Nc1cc(C(=O)c2ccc3c(/C=C/c4ccccn4)n[nH]c3c2)c(C)cc1C` [Example 41(nn), 6-(5-Acetamido-2,4-dimethylbenzoyl)-3-E-[2-(pyridin-2-yl)ethenyl]-1H-indazole], the IC50 is more than 100 nM.

The same test, now with this note: Homo sapiens, HUVEC; read-out: HUVEC + albumin IC50.
Regarding `O=C(Nc1cccc(C(=O)c2ccc3c(/C=C/c4ccccn4)n[nH]c3c2)c1)Oc1ccccc1` [Example 41(cc), 6-[3-(Phenoxyamindo)benzoyl]-3-E-[2-(pyridin-2-yl)ethenyl]-1H-indazole], the IC50 is more than 100 nM.

Still in this test, the particulars now being: Homo sapiens, HUVEC; read-out: HUVEC IC50.
With `Nc1cccc(C(=O)c2ccc3c(/C=N/n4cccc4)n[nH]c3c2)c1` [Example 44], the IC50 was more than 700 nM.

The same test, now with this note: Library I, Y = CO; nominal concentration of 10 nM; crude reaction mixtures.
As to `O=C(NC1CCS(=O)(=O)C1)c1ccc2c(-c3nc4ccccc4[nH]3)n[nH]c2c1` (stereo not drawn) [drawing 576], the “% inhibition of the proliferation of HUVEC” value (from here on “% inhibition … of HUVEC”) is 47%. On to `O=C(Nc1ccc2[nH]c(=O)[nH]c2c1)c1ccc2c(-c3nc4ccccc4[nH]3)n[nH]c2c1` [drawing 582], for which the “% inhibition … of HUVEC” value stood at 42%.

For the compound `O=C(Nc1ccc(O)cc1)c1ccc2c(-c3nc4ccccc4[nH]3)n[nH]c2c1` [drawing 585], the “% inhibition … of HUVEC” value was 33%. On to `O=C(NC1CC1)c1ccc2c(-c3nc4ccccc4[nH]3)n[nH]c2c1` [drawing 587], for which the “% inhibition … of HUVEC” value is on record as 20%.

The same test, now with this note: Library I, Y = NH; nominal concentration of 10 nM; crude reaction mixtures.
Regarding `O=C(NC1CCS(=O)(=O)C1)c1ccc2c(-c3nc4ccccc4[nH]3)n[nH]c2c1` (stereo not drawn) [drawing 576], the “% inhibition … of HUVEC” value is 10%.

With `O=C(Nc1ccc2[nH]c(=O)[nH]c2c1)c1ccc2c(-c3nc4ccccc4[nH]3)n[nH]c2c1` [drawing 582], the “% inhibition … of HUVEC” value was found to be 6%. Same read-out and setting: then `O=C(Nc1ccc(O)cc1)c1ccc2c(-c3nc4ccccc4[nH]3)n[nH]c2c1` [drawing 585], with 3%. For `O=C(NC1CC1)c1ccc2c(-c3nc4ccccc4[nH]3)n[nH]c2c1` [drawing 587], the “% inhibition … of HUVEC” value is on record as 0%.

Staying with this test, now noted: Library I, Y = O; nominal concentration of 10 nM; crude reaction mixtures.
For the compound `O=C(NC1CCS(=O)(=O)C1)c1ccc2c(-c3nc4ccccc4[nH]3)n[nH]c2c1` (stereo not drawn) [drawing 576], the “% inhibition … of HUVEC” value is listed as 17%. Same read-out and setting: for `O=C(Nc1ccc2[nH]c(=O)[nH]c2c1)c1ccc2c(-c3nc4ccccc4[nH]3)n[nH]c2c1` [drawing 582] the value was 13%; for `O=C(Nc1ccc(O)cc1)c1ccc2c(-c3nc4ccccc4[nH]3)n[nH]c2c1` [drawing 585], 32%.

For `O=C(NC1CC1)c1ccc2c(-c3nc4ccccc4[nH]3)n[nH]c2c1` [drawing 587], the “% inhibition … of HUVEC” value is 43%.

Staying with this test, now noted: Library II, Y=S; 0.5 mM (column head; text: nominal 0.5 nM); crude reaction mixtures.
As to `NC(=O)c1ccccc1Sc1ccc2c(/C=C/c3ccccn3)n[nH]c2c1` [H-X1], the “% inhibition … of HUVEC” value was determined as 9%.

The same test, now with this note: Library III; HUVEC proliferation; nominal concentration of 0.5 nM; crude reaction mixtures.
Turning to `O=C(Nc1cc(O)c2ccccc2n1)c1ccccc1Sc1ccc2c(/C=C/c3ccccn3)n[nH]c2c1`, the % inhibition (commonly the change of the read-out against control, counted positive when it falls) was determined as 4%.

Regarding `O=C(Nc1ccccc1F)c1ccccc1Sc1ccc2c(/C=C/c3ccccn3)n[nH]c2c1`, the “% inhibition” value worked out at 17%. Same read-out and setting: then `C[n+]1ccc(NC(=O)c2ccccc2Sc2ccc3c(/C=C/c4ccccn4)n[nH]c3c2)cc1`, with 0%. Consider `N#Cc1nc(NC(=O)c2ccccc2Sc2ccc3c(/C=C/c4ccccn4)n[nH]c3c2)[nH]c1C#N`, for which the “% inhibition” value was −28%. In the case of `N#Cc1[nH]cnc1NC(=O)c1ccccc1Sc1ccc2c(/C=C/c3ccccn3)n[nH]c2c1`, the “% inhibition” value is listed as −13%.

As for `CC(C)(C)c1cc(NC(=O)c2ccccc2Sc2ccc3c(/C=C/c4ccccn4)n[nH]c3c2)n[nH]1`, the “% inhibition” value is reported as −21%. As to `N/C(=N\O)c1[nH]cnc1NC(=O)c1ccccc1Sc1ccc2c(/C=C/c3ccccn3)n[nH]c2c1`, the “% inhibition” value is recorded as −15%. On to `O=C(Nc1cc(Cl)nc(Cl)c1)c1ccccc1Sc1ccc2c(/C=C/c3ccccn3)n[nH]c2c1`, for which the “% inhibition” value was 0%.

In the case of `Cc1cc(NC(=O)c2ccccc2Sc2ccc3c(/C=C/c4ccccn4)n[nH]c3c2)sn1`, the “% inhibition” value is 19%. Turning to `O=C(N[C@H]1CC[C@H](O)CC1)c1ccccc1Sc1ccc2c(/C=C/c3ccccn3)n[nH]c2c1`, the “% inhibition” value was 18%.

For the compound `CCOC(=O)N1CCC(NC(=O)c2ccccc2Sc2ccc3c(/C=C/c4ccccn4)n[nH]c3c2)CC1`, the “% inhibition” value is −24%. Still for that read-out and setting: then `O=C(NCCc1ccc(Cl)cc1)c1ccccc1Sc1ccc2c(/C=C/c3ccccn3)n[nH]c2c1`, with 0%. On to `O=C(NC1CCCCC1O)c1ccccc1Sc1ccc2c(/C=C/c3ccccn3)n[nH]c2c1` (stereo not drawn), for which the “% inhibition” value is reported as −6%.

With `O=C(Nc1cc(O)nc(O)n1)c1ccccc1Sc1ccc2c(/C=C/c3ccccn3)n[nH]c2c1`, the “% inhibition” value turned out to be 3%. `Cc1nnc(NC(=O)c2ccccc2Sc2ccc3c(/C=C/c4ccccn4)n[nH]c3c2)nc1C`: the “% inhibition” value was −20%.

On to `CCOC(=O)CNC(=O)c1ccccc1Sc1ccc2c(/C=C/c3ccccn3)n[nH]c2c1`, for which the “% inhibition” value is reported as −16%. The same measure, in the same setting: then `C#CC1(NC(=O)c2ccccc2Sc2ccc3c(/C=C/c4ccccn4)n[nH]c3c2)CCCCC1`, with 3%; and `Cc1cnc(CNC(=O)c2ccccc2Sc2ccc3c(/C=C/c4ccccn4)n[nH]c3c2)cn1`, with 6%; and `O=C(NCCc1c[nH]c2ccccc12)c1ccccc1Sc1ccc2c(/C=C/c3ccccn3)n[nH]c2c1`, with 18%. As to `CC(CO)(CO)NC(=O)c1ccccc1Sc1ccc2c(/C=C/c3ccccn3)n[nH]c2c1`, the “% inhibition” value is reported as −18%. Still for that read-out and setting: for `COC(=O)c1ccc(C)c(NC(=O)c2ccccc2Sc2ccc3c(/C=C/c4ccccn4)n[nH]c3c2)c1` the value was −9%. The same measure, in the same setting: for `O=C(NCc1ccc2c(c1)CCO2)c1ccccc1Sc1ccc2c(/C=C/c3ccccn3)n[nH]c2c1` the value was 14%.

For `CSc1ccccc1NC(=O)c1ccccc1Sc1ccc2c(/C=C/c3ccccn3)n[nH]c2c1`, the “% inhibition” value is −10%. As to `CSc1ccc(NC(=O)c2ccccc2Sc2ccc3c(/C=C/c4ccccn4)n[nH]c3c2)cc1`, the “% inhibition” value is reported as −7%.

For the compound `O=C(Nc1ncccc1O)c1ccccc1Sc1ccc2c(/C=C/c3ccccn3)n[nH]c2c1`, the “% inhibition” value amounted to 4%. The same measure, in the same setting: for `COc1cccc(NC(=O)c2ccccc2Sc2ccc3c(/C=C/c4ccccn4)n[nH]c3c2)c1` the value was 11%; for `Cc1cc(NC(=O)c2ccccc2Sc2ccc3c(/C=C/c4ccccn4)n[nH]c3c2)n[nH]1`, 11%; for `CSc1cccc(NC(=O)c2ccccc2Sc2ccc3c(/C=C/c4ccccn4)n[nH]c3c2)c1`, 8%. Take `CC(C)(C)NC(=O)c1ccccc1Sc1ccc2c(/C=C/c3ccccn3)n[nH]c2c1`: the “% inhibition” value stood at 23%. For the compound `O=C(NCCc1cccc(Cl)c1)c1ccccc1Sc1ccc2c(/C=C/c3ccccn3)n[nH]c2c1`, the “% inhibition” value was found to be 0%. For `O=C(NCc1ccc(F)cc1)c1ccccc1Sc1ccc2c(/C=C/c3ccccn3)n[nH]c2c1`, the “% inhibition” value is listed as 57%. Still for that read-out and setting: then `O=C(NCc1cccc(Cl)c1)c1ccccc1Sc1ccc2c(/C=C/c3ccccn3)n[nH]c2c1`, with 24%.
